# Experiment: osmolality by vapor pressure osmometry
# Details: no poloxamer
# Procedure: The osmolality of LCMF poloxamer 188 in water was evaluated over the range 25 mg/mL to 400 mg/mL using vapor pressure osmometry (Table 7). […] Any solutions with osmolality values below 270 mOsm/kg or above 300 mOsm/kg are considered hypotonic and hypertonic respectively.
# Drug substance was added to sterile water for injection at 6 concentrations ranging from 15% to 40% and the osmolality values of the solutions were recorded. Sodium chloride was then added to sterile water for injection to make six sodium chloride solutions with osmolality values matching those of the poloxamer 188 solutions. An isotonic 15% poloxamer 188 solution was used as a comparator.
compound,measurement,setting,value
"[Cl-].[Na+] [NaCl, Sodium chloride]",Osmolality,0.36% (w/w) NaCl in SWFI,116 mOsm/kg
same,Osmolality,0.74% (w/w) NaCl in SWFI,224 mOsm/kg
same,Osmolality,1.35% (w/w) NaCl in SWFI,432 mOsm/kg
same,Osmolality,3.13% (w/w) NaCl in SWFI,995 mOsm/kg
same,Osmolality,[…] (w/w) NaCl in SWFI,690 mOsm/kg

# Reference: patent US20190076466A1, “REDUCED SODIUM POLOXAMER-188 FORMULATIONS AND METHODS FOR USE” (MAST THERAPEUTICS, INC., priority 2015, published 2019)
